Where a name gives a salt, the structure may show the parent alone.
Experiments:
[1] = acute toxicity by injection into the peritoneal cavities of mice; settings: in vivo
Experimental: (§1) To illustrate one of the pharmacological effects of these compounds comparative experiments were carried out on the coronary blood flow increasing action, which was measured in rabbits by the Langendorff method, and on acute toxicity using the said trimetazidine as control, with the results being shown in Table 1. The Langendorff method was carried out according to the method described in Folia Pharmacologica Japonica, vol. 56, p. 1387 (1960), and the acute toxicity was measured by injection into the peritoneal cavities of mice.

coronary blood flow = coronary blood flow increasing action, measured in rabbits by the Langendorff method; set-up: species or system rabbit
Description: The above-mentioned prior known derivatives of piperazine, however, have defects in that they are either too weak in the coronary blood flow increasing action [ED50 (mg)-the dose which can increase the coronary blood flow by 50%] or too strong in toxicity to be put to practical use as remedies for humans. Indeed, only one compound, trimetazidine dihydrochloride, [1-(2,3,4-trimethoxybenzyl)piperazine dihydrochloride)], is now being manufactured as a remedy for humans.
as §1

| SMILES | LD50 ([1]; ip mouse) [mg/kg] | ED50 (coronary blood flow increasing action; dose which can increase the coronary blood flow by 50%) (coronary blood flow) [mg] | LD50 ([1]; mouse, ip) [mg/kg] |
| --- | --- | --- | --- |
| COc1ccc(CN2CCNCC2)c(OC)c1OC.Cl.Cl [Trimetazidine, 1-(2,3,4-trimethoxybenzyl)piperazine dihydrochloride, reference compound] | 390 | 0.80 |  |
| COc1ccc(CN2CCN(CCC(c3ccccc3)c3ccccc3)CC2)c(OC)c1OC [1-(3,3-diphenylpropyl)-4-(2,3,4-trimethoxybenzyl)-piperazinedihydrochloride] |  | 0.02 | 100 |
| COc1ccc(CN2CCN(CCC(c3ccccc3)c3ccccc3)CC2)cc1OC.Cl.Cl [1-(3,3-diphenylpropyl)-4-(3,4-dimethoxybenzyl)piperazine dihydrochloride] | 66 | 0.05 |  |
| Cl.Cl.c1ccc(CN2CCN(CCC(c3ccccc3)c3ccccc3)CC2)cc1 [1-(3,3-diphenylpropyl)-4-benzylpiperazine dihydrochloride] | 101 | 0.08 |  |
| COc1cc(CN2CCN(CCC(c3ccccc3)c3ccccc3)CC2)cc(OC)c1OC.Cl.Cl [1-(3,3-diphenylpropyl)-4-(3,4,5-trimethoxybenzyl)piperazine dihydrochloride] | 89 | 0.06 |  |

Reference: US3957790A, “N-(3,3-diphenylpropyl)-n'-aralkyl-substituted piperazines” (Tokyo Tanabe Company, Ltd., priority 1974, dated 1976)
